According to US20230189807A1, “COMPOSITIONS HAVING PESTICIDAL UTILITY AND PROCESSES RELATED THERETO” (priority 2020, published 2023):
Where two headings read alike, the source gives them in different places.

Key:
Format in all cases: in vivo
[1] = system: Western Flower Thrips (Frankliniella occidentalis, FRANOC); experiment: Bioassay 3: Western Flower Thrips, cotton leaf disc dip; details: foliar, 72 h; for pest or weed control at 0.0003125 %: AI alone 0.0003125 % (w/v); for pest or weed control at 7.8e-05 %: read-out: Average % Control AI; for pest or weed control at 0.005 %: AI alone 0.005 % (w/v)
Protocol: Stock solutions of Formula One and various active ingredients were prepared initially at a concentration of 8 mg/mL for Formula One and 1 mg/mL for the active ingredients, respectively, using acetone as a diluent. Stock solutions were prepared with Formula One as well as for each of the active ingredients individually. Test solutions were prepared from the stock solutions. Test solutions were prepared containing Formula One, the individual active ingredients, and mixtures of Formula One with each of the active ingredients. The test solution for Formula One was prepared by adding 500 μL of the stock solution to a 25 mL glass vial, then adding 500 μL of acetone, followed by the addition of 9 mL water with 0.025% Tween® 20 to create a 0.04% (w/v) solution. The test solutions of the individual active ingredients were prepared by adding 500 μL of stock solution to a 25 mL glass vial, then adding 500 μL of acetone, followed by the addition of 9 mL water with 0.025% Tween® 20 to create a 0.005% (w/v) solution. The test solutions containing mixtures of Formula One and the individual active ingredients were prepared by adding 500 μL of the active ingredient stock solution to a 25 mL glass vial, followed by 500 μL of the Formula One stock solution, then by the addition of 9 mL water with 0.025% Tween® 20 to create a test solution containing 0.04% (w/v) Formula One and 0.005% (w/v) of the active ingredient. Each test solution was serially diluted to create desired doses of test solutions (0.005% (w/v), 0.00125% (w/v), 0.0003125% (w/v), 0.000078% (w/v), and 0.0000195% (w/v)). In test solutions containing mixtures of Formula One and the active ingredients, the active ingredients were diluted as described above, but the Concentration of Formula One was held constant (0.04% (w/v)).
The test solutions were tested against WFT using the following procedure: Leaf discs (2.7 cm in diameter) were cut from the true leaves of cotton plants. Leaf discs were dipped into the test solutions and shaken to ensure complete coverage of the leaf disc and then placed in Millipore® PetriSlides containing a filter paper disc. Treated leaf discs were air dried for approximately 1 hour. Each leaf disc was infested with 5 WFT (9-10 day old nymphs) by placement on each leaf disc, and the PetriSlides were capped to prevent escape. Each treatment was replicated three times and the test treatments were held at approximately 26° C. and ambient relative humidity (RH) prior to grading. Reference discs (solvent check) were treated with the diluent only. Evaluation was conducted by counting the number of live WFT under magnification 3 days after treatment. Percent control was measured using Abbott's correction formula (W. S. Abbott, J. Econ. Entomol. 18 (1925), pp. 265-267) as follows:
(§1) Corrected % Control=(1−(Y/X))*100
where X=No. of live nymphs on solvent check leaf discs and Y=No. of live nymphs on treated leaf discs. In Table B3 the “Expected % Control” was calculated using the method described in Colby S. R., Weeds, 1967, 15, 20-22. Bioassay 4: Western Tarnished Plant Bug (Lygus hesperus, LYGUHE) (“WTPB”).

[2] = system: Neotropical Brown Stink Bug (Euschistus heros, EUSCHE); experiment: Bioassay 5: Neotropical Brown Stink Bug, soaked green bean segments; details: 72 h; for pest or weed control at 0.000625 %: AI alone 0.000625 % (w/v); for pest or weed control at 0.000156 % / pest or weed control at 0.0025 %: read-out: Average % Control AI
Protocol: Stock solutions were prepared with Formula One as well as for each of the active ingredients individually. Test solutions were prepared from the stock solutions. Test solutions were prepared containing Formula One, the individual active ingredients, and mixtures of Formula One with each of the active ingredients. The test solution for Formula One was prepared by adding 500 μL of the stock solution to a 25 mL glass vial, then adding 500 μL of acetone, followed by the addition of 9 mL water with 0.025% Tween® 20 to create a 0.04% (w/v) solution. The individual active ingredients were prepared by adding 500 μL of stock solution to a 25 mL glass vial, then adding 500 μL of acetone, followed by the addition of 9 mL water with 0.025% Tween® 20 to create a 0.005% (w/v) solution. The test solutions containing mixtures of Formula One and the individual active ingredients were prepared by adding 500 μL of the active ingredient stock solution to a 25 mL glass vial, followed by 500 μL of the Formula One stock solution, then by the addition of 9 mL water with 0.025% Tween® 20 to create a test solution containing 0.04% (w/v) Formula One and 0.005% (w/v) of the active ingredient. Each test solution was serially diluted to create desired doses of test solutions (0.01% (w/v), 0.0025% (w/v), 0.000625% (w/v), 0.000156% (w/v), and 0.000039% (w/v)). In test solutions containing mixtures of Formula One and the active ingredients, the active ingredients were diluted as described above, but the Concentration of Formula One was held constant (0.04% (w/v)).
The test solutions that were tested against BSB were similar to those described above for WTPB. Fresh green beans were cut into segments approximately 1.5 inches long. Four bean segments were added to each test solution and soaked for approximately 15 minutes. After soaking, a single bean fragment was removed and placed into a single well of a 32-well rearing tray (Frontier Agricultural Sciences™), on top of a round filter paper disc. A reference treatment (solvent check) was treated with the diluent only. Each treatment was replicated four times and the test treatments were held at approximately 26° C. and ambient relative humidity (RH) prior to grading. Bean segments were allowed to air dry for ˜30 minutes. Three BSB nymphs were added to and contained in each well with a clear perforated adhesive lid. The total number of living BSB nymphs was recorded 3 days after application. Scoring was based off the total number of living nymphs out of all four replicates. Percent control was measured using Abbott's correction formula (W. S. Abbott, J. Econ. Entomol. 18 (1925), pp. 265-267) as follows:
as §1
where X=No. of live nymphs on solvent check and Y=No. of live nymphs on treated bean segments. In Table B5 the “Expected % Control” was calculated using the method described in Colby S. R., Weeds, 1967, 15, 20-22. Bioassay 6: Beet Armyworm (Spodoptera exigua, LAPHEG) (BAW), and Diamondback Moth (Plutella xylostella, PLUTMA) (DBM).

[3] = system: Green Peach Aphid (Myzus persicae, MYZUPE); experiment: Bioassay 1: Green Peach Aphid, cabbage seedling foliar spray; details: 3 days after treatment
Protocol: The stock solutions were prepared with Formula One as well as for each of the active ingredients individually. Test solutions were prepared from the stock solutions. Test solutions were prepared containing Formula One, the individual active ingredients, and mixtures of Formula One with each of the active ingredients. The test solutions for Formula One and the individual active ingredients were prepared by adding 750 microliters (μL) of stock solution to a 25 mL glass vial, then adding 750 μL of 1:1 acetone:methanol solvent, followed by the addition of 13.5 mL water with 0.025% Tween® 20 to create a 0.0005% (weight/volume (w/v)) solution. The test solutions containing mixtures of Formula One and the individual active ingredients were prepared by adding 750 μL of the active ingredient stock solution to a 25 mL glass vial, followed by 750 μL of the Formula One stock solution, then by the addition of 13.5 mL water with 0.025% Tween® 20 to create a test solution containing 0.0005% (w/v) Formula One and 0.0005% (w/v) of the active ingredient. Each test solution was serially diluted to create desired doses of test solutions (0.0005% (w/v), 0.000125% (w/v), 0.00003125% (w/v), 0.0000078% (w/v), 0.00000195% (w/v), and 0.0000005% (w/v)).
The test solutions were tested against GPA using the following procedure: Cabbage seedlings, grown in 3 inch pots with 2-3 small (3-5 centimeter (cm)) true leaves, were used as test substrate. The seedlings were infested with 20-50 GPA (wingless adult and nymph stages) one day prior to chemical application. Four pots with individual seedlings were used for each treatment. A hand-held aspirator-type sprayer was used for spraying a solution to both sides of […] leaves until runoff. Reference plants (solvent check) were sprayed with the diluent only (0.025% Tween® 20 and 10% acetone:methanol (1:1) in water). Treated plants were held in a holding room for three days at approximately 25° C. and ambient relative humidity (RH about 20% to about 45%) prior to grading. Evaluation was conducted by counting the number of live aphids per plant under a microscope three days after treatment. Percent control was measured using Abbott's correction formula (W. S. Abbott, J. Econ. Entomol. 18 (1925), pp. 265-267) as follows:
as §1
where X=No. of live aphids on solvent check plants and Y=No. of live aphids on treated plants. In Table B1 the “Expected % Control” was calculated using the method described in Colby S. R., Weeds, 1967, 15, 20-22. Bioassay 2: Sweet Potato Whitefly (Bemisia tabaci, BEMITA) (“SPW”).

[4] = soaked bean segments, 3 days after application
[5] = cotton leaf disc dip, 3 days after treatment
[6] = AI alone 0.000156 % (w/v), soaked bean segments, 3 days after application
[7] = AI alone 0.000078 % (w/v), cotton leaf disc dip, 3 days after treatment
[8] = AI alone 0.0025 % (w/v), soaked bean segments, 3 days after application

Molecule `CC(COc1ccc(Oc2ccccc2)cc1)Oc1ccccn1` (stereo not shown) [Pyriproxyfen] has a pest or weed control at 0.00125 % ([1]; AI alone 0.00125 % (w/v), cotton leaf disc dip, 3 days after treatment) of 17%.
For `CC1(C)[C@H](C(=O)O[C@H](C#N)c2cccc(Oc3ccccc3)c2)[C@@H]1/C=C(\Cl)C(F)(F)F` (racemic) [Lambda Cyhalothrin], the pest or weed control at 0.000625 % [2, 4] was 8%, the “Average % Control A1” value ([3]; AI alone 0.78x10^-5 % (w/v)) was 40% and the pest or weed control at 0.0003125 % [1, 5] was 7%.
In the case of `C/C(=N\C#N)N(C)Cc1ccc(Cl)nc1` [Acetamiprid], the “Average % Control A1” value ([3]; AI alone 0.78x10^-5 % (w/v)) is reported as 24% and the pest or weed control at 0.0003125 % [1, 5] is reported as 13%.
With `Cc1c(COC(=O)[C@@H]2[C@H](/C=C(\Cl)C(F)(F)F)C2(C)C)cccc1-c1ccccc1` (racemic) [Bifenthrin] the pest or weed control at 0.000156 % [2, 6] was 30% and the “Average % Control A1” value ([3]; AI alone 0.78x10^-5 % (w/v)) was 52%.
With `CNC(=O)O/N=C(\SC)C(=O)N(C)C` [Oxamyl] the pest or weed control at 0.0003125 % [1, 5] was 0%.
In the case of `CN/C(=N/CC1CCOC1)N[N+](=O)[O-]` (stereo not shown) [Dinotefuran], the pest or weed control at 0.000156 % [2] is reported as 17%.
For `CCOC(=O)OC1=C(c2cc(C)ccc2C)C(=O)N[C@]12CC[C@@H](OC)CC2` [Spirotetramat], the “Average % Control A1” value ([3]; AI alone 0.05x10^-5 % (w/v)) was 15% and the pest or weed control at 7.8e-05 % [1, 7] was 7%.
Molecule `CCOCn1c(-c2ccc(Cl)cc2)c(C#N)c(Br)c1C(F)(F)F` [Chlorfenapyr] has a pest or weed control at 0.0025 % [2, 8] of 8% and a pest or weed control at 0.005 % [1, 5] of 57%.
For `COc1cccc(C(=O)NN(C(=O)c2cc(C)cc(C)c2)C(C)(C)C)c1C` [Methoxyfenozide], the “Average % Control A1” value ([3]; AI alone 0.195x10^-5 % (w/v)) was 5%.
`CN1COCN(Cc2cnc(Cl)s2)/C1=N\[N+](=O)[O-]` [Thiamethoxam] showed a pest or weed control at 0.000156 % [2, 6] of 17% and a pest or weed control at 7.8e-05 % [1, 7] of 7%.
Work on `O=[N+]([O-])NC1=NCCN1Cc1ccc(Cl)nc1` [Imidacloprid] yielded a pest or weed control at 0.000625 % [2, 4] of 17% and a pest or weed control at 0.0003125 % [1, 5] of 0%.
`CON=CNC(=O)c1ccc(C2=NOC(c3cc(Cl)cc(Cl)c3)(C(F)(F)F)C2)cc1C` (stereo not shown) [Fluxametamide] was tested, and the “Average % Control A1” value ([3]; AI alone 12.5x10^-5 % (w/v)) was 0%.
For `CNC(=O)c1cc(Cl)cc(C)c1NC(=O)c1cc(Br)nn1-c1ncccc1Cl` [Chlorantraniliprole], the pest or weed control at 0.005 % [1, 5] was 7%.
Molecule `CC(c1ccc(C(F)(F)F)nc1)S(C)(=O)=NC#N` (stereo not shown) [Sulfoxaflor] has a pest or weed control at 0.0025 % [2, 8] of 58%.
With Emamectin Benzoate the “Average % Control A1” value ([3]; AI alone 3.125x10^-5 % (w/v)) was 21%.
Molecule `COP(=O)(NC(C)=O)SC` (stereo not shown) [Acephate] has a pest or weed control at 0.0025 % [2] of 0% and a pest or weed control at 7.8e-05 % [1] of 5%.
`CC[S+]([O-])c1c(C#N)nn(-c2c(Cl)cc(C(F)(F)F)cc2Cl)c1N` (stereo not shown) [Ethiprole] was tested, and the pest or weed control at 3.91e-05 % ([2]; AI alone 0.0000391 % (w/v), soaked bean segments, 3 days after application) was 0%, the “Average % Control A1” value ([3]; AI alone 3.125x10^-5 % (w/v)) was 0% and the pest or weed control at 0.005 % [1, 5] was 0%.
